The text below walks through data of ChEMBL document CHEMBL5108027, “An unanticipated discovery of novel naphthalimidopropanediols as potential broad-spectrum antibacterial members” (Eur J Med Chem, 2022).

Values after ≈ are worked out from the molar mass of the structure shown.

Common to all, as to format: functional
For assay [1], the system named is Pseudomonas aeruginosa. Nature of the assay: Antibacterial activity against Pseudomonas aeruginosa measured by Muller-Hinton broth based microdilution assay. In general terms: In broth dilution the organism is exposed to a series of concentrations in liquid medium.
Assay [2] has as its system Pseudomonas aeruginosa. The assay is described as follows: Antibacterial activity against Pseudomonas aeruginosa ATCC 27853 measured by Muller-Hinton broth based microdilution assay.
Assay [3] has as its system Staphylococcus aureus. The assay is described as follows: Antibacterial activity against Staphylococcus aureus measured by Muller-Hinton broth based microdilution assay.
Assay [4] relates to Staphylococcus aureus. The assay is described as follows: Antibacterial activity against Staphylococcus aureus ATCC 29213 measured by Muller-Hinton broth based microdilution assay.
For assay [5], the system named is Acinetobacter baumannii. Nature of the assay: Antibacterial activity against Acinetobacter baumannii measured by Muller-Hinton broth based microdilution assay.
Assay [6] deals with Escherichia coli. Nature of the assay: Antibacterial activity against Escherichia coli ATCC 25922 measured by Muller-Hinton broth based microdilution assay.
For assay [7], the system named is Staphylococcus aureus. Nature of the assay: Antibacterial activity against Staphylococcus aureus ATCC 25923 measured by Muller-Hinton broth based microdilution assay.
Assay [8] deals with Staphylococcus aureus. Nature of the assay: Antibacterial activity against methicillin-resistant Staphylococcus aureus N315 measured by Muller-Hinton broth based microdilution assay.
Assay [9] relates to Escherichia coli. The assay is described as follows: Antibacterial activity against Escherichia coli measured by Muller-Hinton broth based microdilution assay.
The subject of assay [10] is Klebsiella pneumoniae. Nature of the assay: Antibacterial activity against Klebsiella pneumoniae measured by Muller-Hinton broth based microdilution assay.
The subject of assay [11] is Enterococcus faecalis. Nature of the assay: Antibacterial activity against Enterococcus faecalis measured by Muller-Hinton broth based microdilution assay.

`COc1cc(/C=N/Nc2ccc3c4c(cccc24)C(=O)N(C(CO)CO)C3=O)ccc1O`: the MIC (commonly the smallest concentration in the dilution series that meets the test's criterion for growth inhibition) is 64 µg/mL (≈ 147 µM) in [1]; 8 µg/mL (≈ 18.4 µM) in assay [2]; 16 µg/mL (≈ 36.7 µM) in [3]; 16 µg/mL (≈ 36.7 µM) in [4]; 64 µg/mL (≈ 147 µM) in [5]; 16 µg/mL (≈ 36.7 µM) in assay [6]. The MIC in [7] stood at 64 µg/mL (≈ 147 µM); in assay [8] it was 64 µg/mL (≈ 147 µM); in assay [9], 64 µg/mL (≈ 147 µM); in [10], 4 µg/mL (≈ 9.19 µM); in assay [11], 8 µg/mL (≈ 18.4 µM).

On to `CCCCCCCCCCCCn1cc(/C=N/Nc2ccc3c4c(cccc24)C(=O)N(C(CO)CO)C3=O)c2ccccc21`, for which the MIC amounted to 128 µg/mL (≈ 214 µM) in assay [1]; 32 µg/mL (≈ 53.6 µM) in assay [2]; 8 µg/mL (≈ 13.4 µM) in assay [3]; 64 µg/mL (≈ 107 µM) in [4]; 64 µg/mL (≈ 107 µM) in [5]; 64 µg/mL (≈ 107 µM) in assay [6]. Moreover, the MIC turned out to be 32 µg/mL (≈ 53.6 µM) in [7]; 64 µg/mL (≈ 107 µM) in assay [8]; 32 µg/mL (≈ 53.6 µM) in [9]; 64 µg/mL (≈ 107 µM) in assay [10]; 64 µg/mL (≈ 107 µM) in assay [11].

Regarding `O=C1c2cccc3c(N/N=C/c4ccccc4O)ccc(c23)C(=O)N1C(CO)CO`, the MIC in assay [1] turned out to be 64 µg/mL (≈ 158 µM); in assay [2] it was 64 µg/mL (≈ 158 µM); in assay [3], 16 µg/mL (≈ 39.5 µM); in assay [4], 16 µg/mL (≈ 39.5 µM); in [5] it was 64 µg/mL (≈ 158 µM); in assay [6] it was 32 µg/mL (≈ 78.9 µM). For the same compound, the minimum inhibitory concentration (MIC) in assay [7] came to 32 µg/mL (≈ 78.9 µM); in [8] it was 2 µg/mL (≈ 4.93 µM); in assay [9], 32 µg/mL (≈ 78.9 µM); in assay [10], 4 µg/mL (≈ 9.87 µM); in [11] it was 16 µg/mL (≈ 39.5 µM).

`O=C1c2cccc3c(N/N=C/c4ncc[nH]4)ccc(c23)C(=O)N1C(CO)CO`: the minimum inhibitory concentration (MIC) was 8 µg/mL (≈ 21.1 µM) in assay [1]; 4 µg/mL (≈ 10.5 µM) in assay [2]; 32 µg/mL (≈ 84.3 µM) in assay [3]; 128 µg/mL (≈ 337 µM) in assay [4]; 64 µg/mL (≈ 169 µM) in [5]; 64 µg/mL (≈ 169 µM) in assay [6]. Also, the MIC in assay [7] came to 64 µg/mL (≈ 169 µM); in assay [8], 64 µg/mL (≈ 169 µM); in assay [9], 16 µg/mL (≈ 42.2 µM); in assay [10], 64 µg/mL (≈ 169 µM); in assay [11] it was 64 µg/mL (≈ 169 µM).

Take `C#CCn1cc(/C=N/Nc2ccc3c4c(cccc24)C(=O)N(C(CO)CO)C3=O)c2ccccc21`: the MIC in assay [1] amounted to 32 µg/mL (≈ 68.6 µM); in assay [2], 4 µg/mL (≈ 8.57 µM); in assay [3], 0.5 µg/mL (≈ 1.07 µM); in assay [4], 1 µg/mL (≈ 2.14 µM); in [5], 16 µg/mL (≈ 34.3 µM); in assay [6], 16 µg/mL (≈ 34.3 µM). The MIC amounted to 8 µg/mL (≈ 17.1 µM) in [7]; 8 µg/mL (≈ 17.1 µM) in assay [8]; 64 µg/mL (≈ 137 µM) in assay [9]; 4 µg/mL (≈ 8.57 µM) in assay [10]; 16 µg/mL (≈ 34.3 µM) in [11].

As for `C=CCn1cc(/C=N/Nc2ccc3c4c(cccc24)C(=O)N(C(CO)CO)C3=O)c2ccccc21`, the MIC came to 128 µg/mL (≈ 273 µM) in assay [1]; 64 µg/mL (≈ 137 µM) in assay [2]; 64 µg/mL (≈ 137 µM) in assay [3]; 32 µg/mL (≈ 68.3 µM) in assay [4]; 64 µg/mL (≈ 137 µM) in [5]; 16 µg/mL (≈ 34.2 µM) in assay [6]. Also, the MIC was determined as 16 µg/mL (≈ 34.2 µM) in assay [7]; 64 µg/mL (≈ 137 µM) in [8]; 32 µg/mL (≈ 68.3 µM) in [9]; 4 µg/mL (≈ 8.54 µM) in assay [10]; 64 µg/mL (≈ 137 µM) in assay [11].

For the compound `O=C1c2cccc3c(N/N=C/c4ccc5ccccc5n4)ccc(c23)C(=O)N1C(CO)CO`, the MIC in assay [1] was 2 µg/mL (≈ 4.54 µM); in assay [2], 8 µg/mL (≈ 18.2 µM); in [3] it was 4 µg/mL (≈ 9.08 µM); in [4], 128 µg/mL (≈ 291 µM); in assay [5] it was 64 µg/mL (≈ 145 µM); in assay [6], 64 µg/mL (≈ 145 µM). In addition, the MIC came out at 64 µg/mL (≈ 145 µM) in [7]; 2 µg/mL (≈ 4.54 µM) in assay [8]; 4 µg/mL (≈ 9.08 µM) in assay [9]; 32 µg/mL (≈ 72.7 µM) in [10]; 64 µg/mL (≈ 145 µM) in assay [11].

Consider `O=C1c2cccc3c(N/N=C/c4ccc([N+](=O)[O-])cc4)ccc(c23)C(=O)N1C(CO)CO`, for which the minimum inhibitory concentration (MIC) in assay [1] amounted to 16 µg/mL (≈ 36.8 µM); in assay [2] it was 16 µg/mL (≈ 36.8 µM); in assay [3] it was 2 µg/mL (≈ 4.6 µM); in assay [4], 64 µg/mL (≈ 147 µM); in [5] it was 64 µg/mL (≈ 147 µM); in [6], 32 µg/mL (≈ 73.7 µM). The MIC came out at 2 µg/mL (≈ 4.6 µM) in assay [7]; 64 µg/mL (≈ 147 µM) in assay [8]; 32 µg/mL (≈ 73.7 µM) in assay [9]; 32 µg/mL (≈ 73.7 µM) in assay [10]; 1 µg/mL (≈ 2.3 µM) in [11].

Take `O=C1c2cccc3c(N/N=C/c4ccncc4)ccc(c23)C(=O)N1C(CO)CO`: the MIC in assay [1] was found to be 2 µg/mL (≈ 5.12 µM); in [2] it was 1 µg/mL (≈ 2.56 µM); in [3], 4 µg/mL (≈ 10.2 µM); in assay [4], 128 µg/mL (≈ 328 µM); in assay [5], 64 µg/mL (≈ 164 µM); in assay [6], 64 µg/mL (≈ 164 µM). Besides, the MIC in [7] was found to be 64 µg/mL (≈ 164 µM); in [8], 64 µg/mL (≈ 164 µM); in assay [9] it was 32 µg/mL (≈ 82 µM); in [10], 64 µg/mL (≈ 164 µM); in [11], 64 µg/mL (≈ 164 µM).
